One molecule from US11517575B2, “Use of minaprine to reduce tumor growth” (Institut Gustave-Roussy, priority 2019, dated 2022) can be followed below.

The subject of this assay is CT26 cells. Kind of assay: Anti-tumor vaccination assay, CT26 cells in BALB/c mice. The class given is in vivo, mouse. Conditions: for frequency of mice showing a protective response: 8 Gy + 10 μM compound 24 h. The method, then:
FIG. 5. Identification of cannibalism modulators as immunogenic cell death inducers. MCA205 (A) or CT26 (E, I, M, Q) cells were treated with the indicated drugs. After 24 h of coculture with the indicated treatment, cell death was monitored by staining DiOC6(3) and PI, and the percentage of dying (DiOC6(3)^low PI^−, open bars) and dead (DiOC6(3)^low PI^+, closed bars) cells was determined by cytofluorometry. (B-D) MCA205 cells or (F-H, J-L, N-P, R-T) CT26 cells cocultured after x irradiation with the indicated compounds were inoculated subcutaneously into the right flank of […] or BALB/c mice, respectively. Seven days later, the mice were rechallenged with live cells injected into the opposite flank, and tumor growth was monitored (five mice per group).
FIG. 6. Tumor vaccination experiments. CT26 cells were treated for 24 hours with 10 μM VP331 (A, F, K), 10 μM Minaprine (B, G, L), 10 μM Lopa87 (C, H, M), 10 μM SG6163F (D, I, N), 10 μM Azaguanine-8 (8-aza) (E, J, O) alone or combined with 8 Gy ionizing radiation and inoculated (s.c.) into immunocompetent BALB/c mice, which were rechallenged at the opposite flank 7 days later with the same cancer cells. The percentage of tumor-free mice was evaluated three times a week for the following 38 days. Percentage of total tumor free mice (A-E), tumor free-mice at the first injection site (F to J, P) or at the second injection site (K to O, Q) are shown. (*P<0.05, **P<0.01, ***P<0.001, two-way ANOVA).
The combination of IRCCE with IR induces efficient antitumor immunity. Considering that immunogenic cell death (ICD) inducers were identified (such as Digoxin, Digitoxin, Lanatoside C or Doxorubicin hydrochloride)^3, 4, 48-51) as IRCCE, the ability of these compounds to induce an antitumor immunity after radiotherapy was evaluated. First, a preclinical approaches was developed to study the immunological effects of IRCCE on two mouse models of carcinoma (colon CT26 carcinoma and fibrosarcoma MCA205). Initially, the ability of the combination of IRCCE+IR to trigger a specific anti-tumor immune response was appreciated using immunocompetent mice through anti-tumor vaccination assays. According to previously published studies^52, the injection of cancer cells succumbing to an immunogenic cell death (ICD) into immunocompetent mice must elicit a protective immune response that is specific for tumor antigens. Thus, 3×10^5 MCA205 cells were first treated with 10 μM of SG6163F for 24 hours. Then, treated cells were inoculated subcutaneously in 200 μl PBS into the lower flank of 8-week-old female C57BL/6 mice. One week later, 3×10^4 untreated control cells were inoculated into the contralateral flank of mice. Tumors were evaluated weekly using a common caliper. Animals bearing tumors that exceeded 20-25% body mass were euthanatized. […] Then, 3×10^6 CT26 cells were irradiated with 8 Gy in presence of 10 μM of SG6163F (FIGS. 5E and 5F), VP331 (FIGS. 5I and 5J), Minaprine dihydrochloride (FIGS. 5M and 5N) or LOPA87 (FIGS. 5Q and 5R) for 24 hours. Then, cells were inoculated as previously described subcutaneously in […] into the lower flank of 8-week-old female BALB/c mice. One week later, 5×10^5 untreated control cells were inoculated into the contralateral flank of mice and tumors were evaluated weekly using a common caliper. As previously mentioned, animals bearing tumors that exceeded 20-25% body mass were euthanatized. The percentage of dying cells in each condition was evaluated by determining with DiOC(6)3/IP staining (FIGS. 5E, 5I, 5M and 5Q). Finally, the ability of these compounds to repress the growth of cancer cells that have been injected 7 days after injection of irradiated and treated cancer cells was appreciated.
A second anti-tumor vaccination assay was done on CT26 mouse models of carcinoma as previously described. […]

Consider `Cc1cc(-c2ccccc2)nnc1NCCN1CCOCC1.Cl.Cl` [Minaprine dihydrochloride], for which the “frequency of mice showing a protective response” value was “significant increase in the frequency of mice showing a protective response” (first assay: CT26 cells, rechallenge one week later) and “Significant increases in the frequency of mice showing a protective response” (second assay: CT26 cells, rechallenge 7 days later). The “protective response after injection of cancer cells” value (second assay: CT26 cells treated with 10 μM compound alone (no IR)) was “induce an increase of protective response”.
